The text below walks through data of patent US8980226B2, “Aerosolized fosfomycin/aminoglycoside combination for the treatment of bacterial respiratory infections” (Gilead Sciences, Inc., priority 2004, dated 2015).

The subject of one data set is E. faecalis. Briefly: MIC, agar-plate dilution method. The class given is cell-based. As to conditions: Enterococcus faecalis. The method, then: (§1) “Minimal inhibitory concentration (MIC)” means the lowest concentration of antibiotic (s) that prevents visible growth after incubation for 18-20 hours at 35° C.
(§2) The efficacy of antibiotics and antibiotic combinations against Gram-positive and Gram-negative bacteria representative of species that cause respiratory infections in patients with cystic fibrosis, bronchiectasis, sinusitis, and ventilator-associated pneumonia were evaluated in MIC assays. P. aeruginosa strains were isolated from lung sputum samples collected from cystic fibrosis patients, blood cultures, respiratory tract infections, and skin or soft tissue infections. E. coli, H. influenzae, B. cepacia, S. maltophilia, K. pneumoniae, M. catarrhalis, S. aureus, S. pneumoniae, S. pyogenes, and E. faecalis were isolated from respiratory tract infections. E. coli ATCC 25922, P. aeruginosa ATCC 27853, and S. aureus ATCC 29213 were used as quality control stains.
(§3) The MICs of fosfomycin alone, tobramycin alone, or combinations of fosfomycin plus tobramycin were determined by the agar-plate dilution method according to NCCLS guidelines (NCCLS, 2003). Bacterial strains were streaked onto Trypic Soy Agar plates (PML Microbiologicals, Wilsonville, Oreg.) containing 5% defibrinated sheep blood (hereafter referred to as blood agar plates) and incubated overnight at 35° C. Two to three bacterial colonies from the overnight cultures were inoculated into 3 mL of sterile normal saline, vortexed briefly, and adjusted to a 0.5 McFarland standard (NCCLS, 2003). The bacterial suspension was diluted 1:40 in sterile normal saline and served as the inoculum. Mueller-Hinton agar plates (hereafter referred to as MHA) were prepared by combining 16 g of agarose (Becton-Dickinson, Sparks, Md.), 22 g of Mueller-Hinton broth powder (Becton-Dickinson, Sparks, Md.), and adjusted to 1 L with distilled water. The agar was sterilized by autoclaving, cooled to 55° C., and supplemented with 25 μg/mL of glucose-6-phosphate (Sigma-Aldrich, St. Louis, Mo.). Twenty-five mL of cooled agar was aliquoted into 50 mL conical tubes and supplemented with appropriate concentrations of antibiotic to achieve concentrations ranging from 0.06 μg/mL to 512 μg/mL. After gently mixing the agar and antibiotic, the suspension was poured into sterile 100 mm petri dishes and allowed to solidify at room temperature. The antibiotic agar plates were inoculated with approximately 2×10^4 CFU/spot with a 48-point inoculator (Sigma-Aldrich, St. Louis, Mo.). The MIC was defined as the lowest concentration of antibiotic (s) that prevented visible growth after incubation for 18-20 hours at 35° C. The efficacy of a particular antibiotic or antibiotic combination on large populations of P. aeruginosa was determined by calculating the MIC50 and MIC90 values. The MIC50 value was defined as the concentration of antibiotic(s) which inhibited 50% of the P. aeruginosa strains. The MIC90 value was defined as the concentration of antibiotic(s) which inhibited 90% of the P. aeruginosa strains (Wiedemann and Grimm, 1996).

In the next data set the test system is H. influenzae. Nature of the data set: MIC, agar-plate dilution method. It counts as cell-based. The method, then:
as §1, §2, §3

For another data set, the system named is P. aeruginosa. Nature of the data set: MIC, agar-plate dilution method. It counts as cell-based. As to conditions: Pseudomonas aeruginosa. The method, then:
as §1, §2, §3

In another data set the test system is S. aureus. Nature of the data set: MIC, agar-plate dilution method. It counts as cell-based. The method, then: as §1, §2, §3
For the next data set, the system named is P. aeruginosa ATCC 27853. Nature of the data set: MIC for P. aeruginosa ATCC 27853. Conditions: Pseudomonas aeruginosa, ATCC27853. It counts as cell-based. The method, then: E. coli ATCC 25922 and S. aureus ATCC 29213 were used as quality control stains. Bacterial strains were streaked onto blood agar plates, and incubated at 35° C. for 18 hours. Two to three bacterial colonies from the overnight cultures were inoculated into 3 mL of sterile normal saline, vortexed briefly, and adjusted to a 0.5 McFarland standard (NCCLS, 2003). The bacterial suspension was diluted 1:100 in cation-adjusted Mueller-Hinton broth (hereafter referred to as CAMHB). […] The MIC was defined as the lowest concentration of antibiotic (s) that prevented visible growth after incubation at 35° C. for 18-24 hours. […] Two to three bacterial colonies were inoculated into 10 mL CAMHB and incubated at 35° C. in a shaking water bath (250 rpm) for 18-24 hours. […] The resulting culture was adjusted to a 0.5 McFarland standard (NCCLS, 2003). […] Ten milliliter aliquots were then pipeted into 50 mL conical tubes. […] The killing activity of fosfomycin plus amikacin, arbekacin, dibikacin, gentamicin, kanamycin, […], neomycin, streptomycin, or tobramycin were also compared to the killing activity of their individual components alone. […] A no drug control was run in each experiment. Cultures were incubated with antibiotic at 35° C. in a shaking (250 rpm) water bath for 24 hours. […] Culture plates were incubated at 35° C. for 18-24 hours and the number of colonies enumerated manually. […]

Data set [1] relates to E. coli, Proteus spp., Salmonella spp., Shigella spp., and S. marcescens. Conditions: Forsgren and Walder, 1983; cited from earlier work.
The conditions of data set [2]: cited from earlier work.
Where [3] appears, read: Haemophilus influenzae, H. influenzae COR-042, read-out: MIC.
Where [4] appears, read: P. aeruginosa COR-003, read-out: MIC.
Where [5] appears, read: P. aeruginosa COR-021, read-out: MIC.
Where [6] appears, read: Staphylococcus aureus, S. aureus COR-051 (MSSA), read-out: MIC.
Setting [7] is: Staphylococcus aureus, S. aureus COR-055 (MRSA), read-out: MIC.

In brackets after ≈: the same amount, converted by molar mass. Like-named read-outs stand apart in the source and are kept apart here.

As for `C[C@@H]1O[C@@H]1P(=O)(O)O` [Fosfomycin], the MIC in the data set on E. faecalis (E. faecalis COR-099) was found to be 32 µg/mL; in the data set with E. faecalis (E. faecalis COR-103), 32 µg/mL; with H. influenzae (Haemophilus influenzae, H. influenzae COR-049), 128 µg/mL; with H. influenzae (setting [3]), 8 µg/mL; in the data set on P. aeruginosa (setting [4]), 16 µg/mL; in the data set on P. aeruginosa (P. aeruginosa COR-009) it was 1020 µg/mL. Further, the MIC turned out to be 8 µg/mL in the data set with P. aeruginosa (setting [5]); 128 µg/mL in the data set on P. aeruginosa (P. aeruginosa COR-027); 2 µg/mL in the data set with S. aureus (S. aureus COR-060 (GISA)); 1 µg/mL in the data set on S. aureus (setting [6]); 4 µg/mL with S. aureus (setting [7]); 2 µg/mL in the data set with S. aureus (Staphylococcus aureus, S. aureus COR-059, read-out: MIC). The compound further returned an MIC against P. aeruginosa ATCC 27853 of 4 µg/mL (≈ 29 µM). The “fosfomycin concentrations at which the species are generally inhibited” value in data set [1] is no more than 64 µg/mL.

Consider `NC[C@H]1O[C@H](O[C@H]2[C@H](O)[C@@H](O[C@H]3O[C@H](CO)[C@@H](O)[C@H](N)[C@H]3O)[C@H](N)C[C@@H]2N)[C@H](N)C[C@@H]1O` [Tobramycin], for which the MIC with E. faecalis (E. faecalis COR-099) stood at 512 µg/mL; in the data set with E. faecalis (E. faecalis COR-103), 8 µg/mL; in the data set on H. influenzae (H. influenzae COR-049) it was 0.5 µg/mL; with H. influenzae (setting [3]), 0.5 µg/mL; with P. aeruginosa (setting [4]) it was 0.5 µg/mL; in the data set on P. aeruginosa (P. aeruginosa COR-009, read-out: MIC), 2050 µg/mL. The MIC in the data set on P. aeruginosa (setting [5]) worked out at 64 µg/mL; with P. aeruginosa (P. aeruginosa COR-027, read-out: MIC), 0.5 µg/mL; with S. aureus (setting [6]), 0.25 µg/mL; in the data set on S. aureus (setting [7]), 0.25 µg/mL; with S. aureus (Staphylococcus aureus, S. aureus COR-059) it was 128 µg/mL; with S. aureus (Staphylococcus aureus, S. aureus COR-060 (GISA), read-out: MIC), 64 µg/mL. The sputum levels in data set [2] (aerosol administration) is no less than 1000 µg/mL. Also, in data set [2] (in vivo, po), the oral absorption entry is “poorly absorbed orally”. Also, the plasma half-life in data set [2] (parenteral administration) was 1 to 2 h.
